Read-outs that look alike come from different tables or passages of the source.
Legend:
antisera from rabbit 19 = format: binding; design: key: +++: strong; ++: medium; +: weak reaction; poor: slight; -: none; conditions: antisera 1:2000, 2 hours at 25° C.
Procedure: (§1) An ELISA was used to screen the antisera for polyclonal antibodies to the generic hapten/conjugate of the invention using the following protocol. Microtitre plates (Costar) were coated with the appropriate hapten conjugate with ovalbumin by diluting that in 0.05M sodium hydrogen carbonate/sodium carbonate buffer (pH 9.6) to give an optimum protein concentration of 1 μg/ml previously determined by chequerboard titration; protein found by Bradford assay. 100 μl was added to each microtitre plate well and the plates placed in a moist chamber overnight, washed 3 times with 0.15 phosphate buffered saline pH7.2 with 0.05% Tween 20[RTM]: PBST), and blotted dry. Blocking was carried out by adding 250 μl per well of 5% skimmed milk for 1 hour at 25° C.
(§2) After two further washings the coated microplates were stored at -20° C. until required, whereon they were washed once with PBST. Antisera were diluted (1/1000 for general screening or doubling dilutions up to 1/512,000 for titration assays) in PSBT, applied to microtitre wells in triplicate in 50 μl amounts and incubated in a moist chamber at 25° C. for 1 hour (appropriate positive and negative controls were included--PBST, negative rabbit serum and positive serum when it had been produced). Wells were then washed 3 times in PBST and 200 μl of a 1:1500 dilution of swine anti-rabbit immunoglobulin conjugated to horseradish peroxidase (DAKO) was added to each well. Plates were incubated once more for 1 hour at 25° C. then washed 3 times with PBST.
(§3) Tetramethylbenzidine (TMB) enzyme substrate solution was prepared by adding 400 μl of 6.0 g/l TMB in DMSO to 24.5 ml of 0.1M sodium acetate buffer pH5.5 with 100 μl of 1% H2 O2 and 100 μl added to the wells. The microplates were incubated for 15 minutes in the dark at 25° C. before the reaction was stopped by adding 50 μl of 2.5M H2 SO4 and the absorbance read at 450 nm against air. Results: are given below with those of Example 6.
(§4) Assay was carried out in the same manner as Example 5 with the following modifications. Antisera was diluted 1:2000 with 1% BSA in PBST and 100 μl was incubated for 2 hours at 25° C. with 100 μl of each concentration of the unconjugated OP--in this case the generic part--in a microtitration plate. Concentrations of OP ranged from 200 to 0.001 μg ml^-1.
(§5) Cross reactivity of antisera from rabbits 19, 20 and 21 by inhibition ELISA with the various organophosphorus pesticides is shown in Table 5 in which concentration (μg ml^-1) for 50% inhibition to occur is given together with the diluent in which this is achieved--PBST or % methanol in PBST for figures.

antisera from rabbit 21 = format: binding; design: key: +++: strong; ++: medium; +: weak reaction; poor: slight; -: none; conditions: antisera 1:2000, 2 hours at 25° C.
Procedure: as §1, §2, §3, §4, §5

antisera from rabbit 20 = format: binding; design: key to cross reactivity by inhibition ELISA, Rabbit 20: +++: strong; ++: medium; +: weak reaction; poor: slight; -: none; conditions: for cross reactivity by inhibition ELISA, Rabbit 20: antisera 1:2000, 2 hours at 25° C.; for concentration for 50% inhibition: Rabbit 20
Procedure: as §1, §2, §3, §4, §5

generic antibodies = assay: Relative inhibition of binding of generic antibodies to hapten conjugate; design: species or system rabbit; conditions: inhibition at 100 μg/ml minus inhibition at 0.1 μg/ml organophosphate
Procedure: as §4

| Structure (SMILES) | cross reactivity by inhibition ELISA, Rabbit 19 (antisera from rabbit 19) | cross reactivity by inhibition ELISA, Rabbit 21 (antisera from rabbit 21) | cross reactivity by inhibition ELISA, Rabbit 20 (antisera from rabbit 20) | Relative inhibition of binding of generic antibodies to hapten conjugate as % of hapten + spacer inhibition (generic antibodies) [%] | concentration for 50% inhibition (antisera from rabbit 20; diluent 10% methanol in PBST) [µg/mL] | concentration for 50% inhibition (antisera from rabbit 20; diluent PBST) [µg/mL] |
| --- | --- | --- | --- | --- | --- | --- |
| CCOc1cc(OP(=S)(OC)OC)nc(CC)n1 [Etrimfos, etrimfos] | - | poor | + | 30.8 |  |  |
| OCCCCO [Spacer, 1,4 butanediol] | - | - | - |  |  |  |
| COP(=S)(OC)Oc1ccc([N+](=O)[O-])c(C)c1 [Fenitrothion, fenitrothion] | + | + | +++ | 90.1 | 4.8 |  |
| CCN(CC)c1nc(C)cc(OP(=S)(OC)OC)n1 [Pirimiphos-methyl, pirimiphos-methyl] | - | - | poor | 21.1 |  |  |
| COC(=O)/C(C)=C/OP(=S)(OC)OC [Methacrifos, methacrifos] | + | + | +++ | 89.1 |  | 8.2 |
| O=C(O)CNCP(=O)(O)O [Glyphospate] | - | - | - |  |  |  |
| COP(=O)(OC)O/C(=C\Cl)c1cc(Cl)c(Cl)cc1Cl [Tetrachlorvinphos, tetrachlorvinphos] | - | poor | poor | 27.2 |  |  |
